Laboratory results taken from patent US20250230154A1, “COMPOUND HAVING SHP2 PROTEIN DEGRADING ACTIVITY, AND MEDICAL USES THEREOF” (UBIX THERAPEUTICS, INC., priority 2021, published 2025).

Target: T1, SHP2 protein (Homo sapiens, UniProt Q06124)
T1 sequence (Q06124 1-593): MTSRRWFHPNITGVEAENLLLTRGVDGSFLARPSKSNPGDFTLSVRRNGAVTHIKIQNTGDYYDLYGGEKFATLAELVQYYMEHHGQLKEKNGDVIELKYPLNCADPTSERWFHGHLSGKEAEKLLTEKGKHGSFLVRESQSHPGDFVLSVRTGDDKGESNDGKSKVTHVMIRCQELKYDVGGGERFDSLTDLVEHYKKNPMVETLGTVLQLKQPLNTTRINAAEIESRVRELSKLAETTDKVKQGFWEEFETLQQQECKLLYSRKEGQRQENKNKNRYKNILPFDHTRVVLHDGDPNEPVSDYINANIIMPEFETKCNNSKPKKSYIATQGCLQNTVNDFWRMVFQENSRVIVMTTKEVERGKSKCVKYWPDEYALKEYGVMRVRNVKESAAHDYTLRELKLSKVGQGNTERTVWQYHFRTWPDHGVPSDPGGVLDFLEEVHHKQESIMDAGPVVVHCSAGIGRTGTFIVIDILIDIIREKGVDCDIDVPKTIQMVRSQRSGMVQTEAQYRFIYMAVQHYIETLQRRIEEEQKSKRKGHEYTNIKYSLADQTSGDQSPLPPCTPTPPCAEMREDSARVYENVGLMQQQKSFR
Test: Measurement of SHP2 protein degradation in MV-4-11 cells (western blotting)
Format: cell-based
Set-up: endogenous in cells; host or cells: MV-4-11
Settings: for SHP2 degradation (%) 10 nM / SHP2 degradation (%) 100 nM / SHP2 degradation (%) 1000 nM: MV-4-11 cells, 24 hours
Outline: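 SHP2 protein levels were assessed by western blotting in MV-4-11 cells after a 24 hour compound treatment. Lysates were sonicated, centrifuged, normalized by BCA assay at 562 nm, run on Bis-tris 4-12% gels, transferred to NC membrane, probed with anti-SHPTP2 (70 kDa) and anti-GAPDH (37 kDa) antibodies, and detected on LI-COR Odyssey.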

| SMILES | SHP2 degradation (%) 10 nM [%] | SHP2 degradation (%) 100 nM [%] | SHP2 degradation (%) 1000 nM [%] | SHP2 protein degradation activity (in words) (comment on Table 4) |
| --- | --- | --- | --- | --- |
| CC(=O)N[C@H](C(=O)N1C[C@H](O)C[C@H]1C(=O)NCc1ccc(-c2scnc2C)cc1OCCN1CCN(C(=O)CC(=O)Nc2cccc(Sc3cnc(N4CCC(C)(CN)CC4)cn3)c2Cl)CC1)C(C)(C)C [Example 57, (2S,4R)-1-((S)-2-acetamido-3,3-dimethylbutanoyl)-N-(2-(2-(4-(3-((3-((5-(4-(aminomethyl)-4-methylpiperidin-1-yl)pyrazin-2-yl)thio)-2-chlorophenyl)amino)-3-oxopropanoyl)piperazin-1-yl)ethoxy)-4-(4-methylthiazol-5-yl)benzyl)-4-hydroxypyrrolidine-2-carboxamide] | 95.7 | 99.8 | 99.7 |  |
| Cc1ncsc1-c1ccc(CNC(=O)[C@@H]2C[C@@H](O)CN2C(=O)[C@@H](NC(=O)C2(F)CC2)C(C)(C)C)c(OCCN2CCN(C(=O)C(C)C(=O)Nc3cccc(Sc4cnc(N5CCC(C)(CN)CC5)cn4)c3Cl)CC2)c1 (stereo partly drawn) [Example 58, (2S,4R)—N-(2-(2-(4-(3-((3-((5-(4-(aminomethyl)-4-methylpiperidin-1-yl)pyrazin-2-yl)thio)-2-chlorophenyl)amino)-2-methyl-3-oxopropanoyl)piperazin-1-yl)ethoxy)-4-(4-methylthiazol-5-yl)benzyl)-1-((S)-2-(1-fluorocyclopropane-1-carboxamido)-3,3-dimethylbutanoyl)-4-hydroxypyrrolidine-2-carboxamide] | 90.0 | 99.9 |  |  |
| Cc1ncsc1-c1ccc(CNC(=O)[C@@H]2C[C@@H](O)CN2C(=O)[C@@H](NC(=O)C2(F)CC2)C(C)(C)C)c(OCCN2CCN(C(=O)C(C)(C)C(=O)Nc3cccc(Sc4cnc(N5CCC(C)(CN)CC5)cn4)c3Cl)CC2)c1 [Example 59, (2S,4R)—N-(2-(2-(4-(3-((3-((5-(4-(aminomethyl)-4-methylpiperidin-1-yl)pyrazin-2-yl)thio)-2-chlorophenyl)amino)-2,2-dimethyl-3-oxopropanoyl)piperazin-1-yl)ethoxy)-4-(4-methylthiazol-5-yl)benzyl)-1-((S)-2-(1-fluorocyclopropane-1-carboxamido)-3,3-dimethylbutanoyl)-4-hydroxypyrrolidine-2-carboxamide] | −2.0 | 3.0 |  | somewhat decreased |
| Cc1ncsc1-c1ccc(CNC(=O)[C@@H]2C[C@@H](O)CN2C(=O)[C@@H](NC(=O)C2(F)CC2)C(C)(C)C)c(OCCCN2CCN(C(=O)CC(=O)Nc3cccc(Sc4cnc(N5CCC(C)(CN)CC5)cn4)c3Cl)CC2)c1 [Example 60, (2S,4R)—N-(2-(3-(4-(3-((3-((5-(4-(aminomethyl)-4-methylpiperidin-1-yl)pyrazin-2-yl)thio)-2-chlorophenyl)amino)-3-oxopropanoyl)piperazin-1-yl)propoxy)-4-(4-methylthiazol-5-yl)benzyl)-1-((S)-2-(1-fluorocyclopropane-1-carboxamido)-3,3-dimethylbutanoyl)-4-hydroxypyrrolidine-2-carboxamide] | 59 | 94 | 95.5 |  |
| CC(=O)N[C@H](C(=O)N1C[C@H](O)C[C@H]1C(=O)NCc1ccc(-c2scnc2C)cc1OCCCN1CCN(C(=O)CC(=O)Nc2cccc(Sc3cnc(N4CCC(C)(CN)CC4)cn3)c2Cl)CC1)C(C)(C)C [Example 61, (2S,4R)-1-((S)-2-acetamido-3,3-dimethylbutanoyl)-N-(2-(3-(4-(3-((3-((5-(4-(aminomethyl)-4-methylpiperidin-1-yl)pyrazin-2-yl)thio)-2-chlorophenyl)amino)-3-oxopropanoyl)piperazin-1-yl)propoxy)-4-(4-methylthiazol-5-yl)benzyl)-4-hydroxypyrrolidine-2-carboxamide] | 87.3 | 99.4 |  |  |
| Cc1ncsc1-c1ccc(CNC(=O)[C@@H]2C[C@@H](O)CN2C(=O)[C@@H](NC(=O)C2(F)CC2)C(C)(C)C)c(OCCN2CCN(C(=O)CC(=O)Nc3cccc(Sc4cnc(N5CCC(C)(CN)CC5)cn4)c3Cl)[C@H](C)C2)c1 [Example 62, (2S,4R)—N-(2-(2-((R)-4-(3-((3-((5-(4-(aminomethyl)-4-methylpiperidin-1-yl)pyrazin-2-yl)thio)-2-chlorophenyl)amino)-3-oxopropanoyl)-3-methylpiperazin-1-yl)ethoxy)-4-(4-methylthiazol-5-yl)benzyl)-1-((S)-2-(1-fluorocyclopropane-1-carboxamido)-3,3-dimethylbutanoyl)-4-hydroxypyrrolidine-2-carboxamide] | 82.5 | 96 |  |  |
| Cc1ncsc1-c1ccc(CNC(=O)[C@@H]2C[C@@H](O)CN2C(=O)[C@@H](NC(=O)C2(F)CC2)C(C)(C)C)c(OCCN2CCN(C(=O)CC(=O)Nc3cccc(Sc4cnc(N5CCC(C)(CN)CC5)cn4)c3Cl)[C@@H](C)C2)c1 [Example 63, (2S,4R)—N-(2-(2-((S)-4-(3-((3-((5-(4-(aminomethyl)-4-methylpiperidin-1-yl)pyrazin-2-yl)thio)-2-chlorophenyl)amino)-3-oxopropanoyl)-3-methylpiperazin-1-yl)ethoxy)-4-(4-methylthiazol-5-yl)benzyl)-1-((S)-2-(1-fluorocyclopropane-1-carboxamido)-3,3-dimethylbutanoyl)-4-hydroxypyrrolidine-2-carboxamide] | 90.5 | 97 |  |  |
| Cc1ncsc1-c1ccc(CNC(=O)[C@@H]2C[C@@H](O)CN2C(=O)[C@@H](NC(=O)C2(F)CC2)C(C)(C)C)c(OCCN2CC3CCC(C2)N3C(=O)CC(=O)Nc2cccc(Sc3cnc(N4CCC(C)(CN)CC4)cn3)c2Cl)c1 [Example 68, (2S,4R)—N-(2-(2-(8-(3-((3-((5-(4-(aminomethyl)-4-methylpiperidin-1-yl)pyrazin-2-yl)thio)-2-chlorophenyl)amino)-3-oxopropanoyl)-3,8-diazabicyclo[3.2.1]octan-3-yl)ethoxy)-4-(4-methylthiazol-5-yl)benzyl)-1-((S)-2-(1-fluorocyclopropane-1-carboxamido)-3,3-dimethylbutanoyl)-4-hydroxypyrrolidine-2-carboxamide] | 83.3 | 98.3 |  |  |

Further lines, results first:

| SHP2 degradation (%) 10 nM [%] | SHP2 degradation (%) 100 nM [%] | SHP2 degradation (%) 1000 nM [%] | SHP2 protein degradation activity (in words) (comment on Table 4) | SMILES |
| --- | --- | --- | --- | --- |
| 45.9 | 96.6 |  |  | Cc1ncsc1-c1ccc(CNC(=O)[C@@H]2C[C@@H](O)CN2C(=O)[C@@H](NC(=O)C2(F)CC2)C(C)(C)C)c(OCCCN2CCN(C(=O)CC(=O)Nc3cccc(Sc4cnc(N5CCC(C)(CN)CC5)cn4)c3Cl)[C@@H](C)C2)c1 [Example 64, (2S,4R)—N-(2-(3-((S)-4-(3-((3-((5-(4-(aminomethyl)-4-methylpiperidin-1-yl)pyrazin-2-yl)thio)-2-chlorophenyl)amino)-3-oxopropanoyl)-3-methylpiperazin-1-yl)propoxy)-4-(4-methylthiazol-5-yl)benzyl)-1-((S)-2-(1-fluorocyclopropane-1-carboxamido)-3,3-dimethylbutanoyl)-4-hydroxypyrrolidine-2-carboxamide] |
| 31.6 | 95.4 |  |  | Cc1ncsc1-c1ccc(CNC(=O)[C@@H]2C[C@@H](O)CN2C(=O)[C@@H](NC(=O)C2(F)CC2)C(C)(C)C)c(OCCCN2CCN(C(=O)CC(=O)Nc3cccc(Sc4cnc(N5CCC(C)(CN)CC5)cn4)c3Cl)[C@H](C)C2)c1 [Example 65] |
| 79 | 98.1 |  |  | COC(=O)[C@@H]1CN(C(=O)CC(=O)Nc2cccc(Sc3cnc(N4CCC(C)(CN)CC4)cn3)c2Cl)CCN1CCOc1cc(-c2scnc2C)ccc1CNC(=O)[C@@H]1C[C@@H](O)CN1C(=O)[C@@H](NC(=O)C1(F)CC1)C(C)(C)C [Example 66, (S)-methyl 4-(3-((3-((5-(4-(aminomethyl)-4-methylpiperidin-1-yl)pyrazin-2-yl)thio)-2-chlorophenyl)amino)-3-oxopropanoyl)-1-(2-(2-(((2S,4R)-1-((S)-2-(1-fluorocyclopropane-1-carboxamido)-3,3-dimethylbutanoyl)-4-hydroxypyrrolidine-2-carboxamido)methyl)-5-(4-methylthiazol-5-yl)phenoxy)ethyl)piperazine-2-carboxylate] |
| 68.3 | 98.1 |  |  | COC(=O)[C@H]1CN(C(=O)CC(=O)Nc2cccc(Sc3cnc(N4CCC(C)(CN)CC4)cn3)c2Cl)CCN1CCOc1cc(-c2scnc2C)ccc1CNC(=O)[C@@H]1C[C@@H](O)CN1C(=O)[C@@H](NC(=O)C1(F)CC1)C(C)(C)C [Example 67, Methyl (R)-4-(3-((3-((5-(4-(aminomethyl)-4-methylpiperidin-1-yl)pyrazin-2-yl)thio)-2-chlorophenyl)amino)-3-oxopropanoyl)-1-(2-(2-(((2S,4R)-1-((S)-2-(1-fluorocyclopropane-1-carboxamido)-3,3-dimethylbutanoyl)-4-hydroxypyrrolidine-2-carboxamido)methyl)-5-(4-methylthiazol-5-yl)phenoxy)ethyl)piperazine-2-carboxylate] |
